Test results taken from patent US10085449B2, “N-[1-((6-chloropyridin-3-yl)methyl)pyridin-2(1H)-ylidene]-2,2,2- trifluoroacetamide for control of agricultural/horticultural pests” (priority 2010, dated 2018).
Read-outs that look alike come from different tables or passages of the source.

How the values were obtained:
Type in all cases: in vivo
greenhouse whitefly = assay: whole plant or invertebrate; conditions: Cucumis sativus, foliar, 336 h
Method: Adult greenhouse whiteflies were released onto cucumber plants grown in pots, and allowed to laid eggs overnight. One day after the start of oviposition, the adults were removed, and the plants and eggs were held in an incubation chamber at 25° C. (16-hour period of light, 8-hour dark period). Three days after the end of oviposition, leaf discs 2.0 cm in diameter were cut from the cucumber plants and, after confirming oviposition thereon, the leaf discs were sprayed with solutions of the inventive compounds at a predetermined concentration prepared to 50% acetone/water (containing 0.05% Tween 20). After spraying, the treated leaf discs were held in an incubation chamber at 25° C. (16-hour period of light, 8-hour dark period). Fourteen days after spraying, the numbers of live and dead insects were counted, and the mortality was calculated from the following formula. This was a two-replication test. Mortality (%)=[(number of oviposited eggs−number of live insects)/number of oviposited eggs]×100

green rice leafhopper = assay: Green rice leafhopper control test (foliar application); conditions: Nephotettix cincticeps, 96 h
Method: (§1) Rice seedlings grown in pots were subjected to the foliar application of solutions of the inventive compounds at a predetermined concentration prepared to 50% acetone/water (containing 0.05% Tween 20). The treated seedlings were air dried, following which second-instar larvae were released onto the seedlings. The seedlings and larvae were then held in an incubation chamber at 25° C. (16-hour period of light, 8-hour dark period). Four days after released, the numbers of live and dead insects were counted, and the mortality was calculated from the following formula. This was a two-replication test. Mortality (%)=[number of dead insects/(number of live insects+number of dead insects)]×100

small brown planthopper [1] = assay: whole plant or invertebrate; conditions: Laodelphax striatellus, foliar
Method: as §1, with “Three” for “Four”

rice water weevil = assay: Rice water weevil control test (soil drenching treatment); conditions: 0.1 mg/seedling soil drenching of rice seedlings, adults, 3 days after release
Method: Rice seedlings grown in pots were subjected to soil drenching treatment with solutions of the inventive compounds at a predetermined concentration prepared to 10% acetone/water. Two days after treatment, five adult rice water weevils were released onto each seedling. The seedlings and insects were then held in an incubation chamber at 25° C. (16-hour period of light, 8-hour dark period). Three days after released, the numbers of live and dead insects were counted, and the mortality was calculated from the following formula. The test was carried out as two replications. Mortality (%)=[number of dead insects/(number of live insects+number of dead insects)]×100

diamondback moth = assay: whole plant or invertebrate; conditions: Plutella xylostella, foliar
How it was run: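 Cabbage leaf discs sprayed with compound in 50% acetone/water with 0.05% Tween 20, air-dried, then infested with second-instar larvae. Held at 25 °C under 16 h light/8 h dark; mortality from dead/(live+dead) counts after 3 days, two replicates.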

green peach aphid = assay: Green peach aphid control test (foliar application); conditions: Myzus persicae, in Brassica oleracea, 72 h
Source text: Leaf discs 2.8 cm in diameter were cut from cabbage plants grown in pots, and four adult aphids were released onto each disc. One day later, the adults were removed, and the number of first-instar larvae that had been deposited on each leaf disc was adjusted to 10. Next, the leaf discs parasitized by these first instar larvae were sprayed with solutions of the inventive compounds at a predetermined concentration prepared to 50% acetone/water (containing 0.05% Tween 20). The treated leaf discs were air dried, following which covers were placed over the Petri dishes and the leaf discs and larvae were held in an incubation chamber at 25° C. (16-hour period of light, 8-hour dark period). Three days after released, the numbers of live and dead insects were counted, and the mortality was calculated from the following formula. This was a two-replication test. Mortality (%)=[number of dead insects/(number of live insects+number of dead insects)]×100

small brown planthopper [2] = assay: whole plant or invertebrate; conditions: Laodelphax striatellus, 72 h
How it was run: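 Rice seedlings in pots soil-drenched with compound at a set concentration in 10% acetone/water; ten second-instar larvae released per seedling 3 days later. Held at 25° C. (16 h light/8 h dark) and scored live/dead 3 days after release. Mortality (%) = dead/(live+dead)×100; two replications.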

brown-winged green bug = assay: Brown-winged green bug control test; conditions: 50 ppm foliar application on young apples, adults, 6 days after release
Method: Young apples that had been collected in the field were sprayed with solutions of the inventive compounds at a predetermined concentration prepared to 50% acetone/water (containing 0.05% Tween 20). The treated fruits were air-dried, placed in plastic cups and two adult brown-winged green bugs were released into each cup. Following release of the insects, the fruits and insects were held in an incubation chamber at 25° C. (16-hour period of light, 8-hour dark period). Six days after released, the numbers of live and dead insects were counted, and the mortality was calculated from the following formula. Mortality (%)=[number of dead insects/(number of live insects+number of dead insects)]×100

[3] = read-out: Insecticidal effects (mortality), small brown planthopper second-instar larvae
[4] = read-out: Insecticidal effects (mortality), diamondback moth second-instar larvae
[5] = soil, read-out: Insecticidal effects (mortality), small brown planthopper second-instar larvae

## O=C(N=c1ccccn1Cc1ccc(Cl)nc1)C(F)(F)F [Compound 212, N-[1-((6-chloropyridin-3-yl)methyl)pyridin-2(1H)-ylidene]-2,2,2-trifluoroacetamide]
Greenhouse whitefly
  mortality at 100 ppm: ≥ 80%
Green rice leafhopper
  mortality at 100 ppm: ≥ 80%
Small brown planthopper [1]; [3]
  mortality at 0.313 ppm: 75%
  mortality at 1.25 ppm: 100%
  mortality at 5 ppm: 100%
Small brown planthopper [1]; in Oryza sativa, 72 h
  mortality at 100 ppm: ≥ 80%
Rice water weevil
  Mortality: at least 80%
Diamondback moth; [4]
  mortality at 20 ppm: 100%
  mortality at 100 ppm: 100%
  mortality at 500 ppm: 100%
Diamondback moth; in Brassica oleracea, 72 h
  mortality at 100 ppm: ≥ 80%
  mortality at 500 ppm: ≥ 80%
Green peach aphid
  mortality at 100 ppm: ≥ 80%
Small brown planthopper [2]; rice soil drenching, 0.002 mg/pot (Table 13), read-out: Small brown planthopper (rice soil drenching), effect
  pest or weed control at 0.002 mg/pot: 85%
Small brown planthopper [2]; rice soil drenching, 0.005 mg/pot (Table 13), read-out: Small brown planthopper (rice soil drenching), effect
  pest or weed control at 0.005 mg/pot: 95%
Small brown planthopper [2]; rice soil drenching, 0.01 mg/pot (Table 13), read-out: Small brown planthopper (rice soil drenching), effect
  pest or weed control at 0.01 mg/pot: 100%
Small brown planthopper [2]; rice soil drenching, 0.05 mg/pot (Table 13), read-out: Small brown planthopper (rice soil drenching), effect
  pest or weed control at 0.05 mg/pot: 100%
Small brown planthopper [2]; soil
  mortality at 0.005 mg/seedling: 95%
  mortality at 0.05 mg/seedling: ≥ 80%
Small brown planthopper [2]; [5]
  mortality at 0.002 mg/pot: 85%
  mortality at 0.005 mg/pot: 95%
  mortality at 0.01 mg/pot: 100%
  mortality at 0.05 mg/pot: 100%
brown-winged green bug
  Mortality: at least 80%
